Source: US5798350A, “Dopamine receptor ligands” (Allelix Biopharmaceuticals, Inc., priority 1996, dated 1998)
pKi: −log10 of the molar value.

Biological target: T1, human D4 receptor (D4.2 sub-type) (Homo sapiens, UniProt P21917, DEL265-296)
T1 construct: expressed in transfected cells; host or cells: HEK 298 (human embryonic kidney) cells, [sic]; homogenate of stably transfected cells
T1 sequence (P21917 with tags, fused parts or gaps DEL265-296): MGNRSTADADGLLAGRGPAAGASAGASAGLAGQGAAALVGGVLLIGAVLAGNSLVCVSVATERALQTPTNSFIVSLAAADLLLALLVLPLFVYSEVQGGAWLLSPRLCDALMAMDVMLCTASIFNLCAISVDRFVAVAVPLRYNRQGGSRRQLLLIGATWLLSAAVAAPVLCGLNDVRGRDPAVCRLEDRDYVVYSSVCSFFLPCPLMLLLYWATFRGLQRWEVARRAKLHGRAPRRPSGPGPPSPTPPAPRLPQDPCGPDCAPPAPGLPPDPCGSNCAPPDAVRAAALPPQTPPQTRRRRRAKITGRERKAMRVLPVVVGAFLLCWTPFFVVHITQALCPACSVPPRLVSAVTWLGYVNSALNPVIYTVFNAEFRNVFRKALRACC
Experiment: D4 receptor binding, displacement of 3H-spiperone
Settings: human D4 receptor; 3H-spiperone 0.25 nM
Experimental: (§1) The potency of the test compound to reduce ^3 H-spiperone binding directly correlated to its binding affinity for the receptor.
The cells were then centrifuged in a Sorval centrifuge for 10 minutes, 5000 rpm (GS3 rotor) and the pellets quickly frozen in liquid nitrogen and stored at -80° C. until used in binding assay. When used in the assay, cells were thawed on ice for 20 minutes and then 10 mL of incubation buffer (50 mM Tris, 1 mM EDTA, 4 mM MgCl2, 5 mM KCl, 1.5 mM CaCl2, 120 mM NaCl, pH7.4) was added. […] Concentration of receptor protein was determined using the Pierce BCA assay.
(§2) Total Spiperone Binding Assay
(§3) The tubes were vortexed and incubated at room temperature for 90 minutes. The binding reaction was stopped by filtering using a Brandell Cell Harvester. The samples were filtered under vacuum over glass fibre filters (Whatman GF/B) presoaked for 2 hours in 0.3% polyethyleneimine (PEI) in 50 mM Tris buffer (pH7.4). The filters were then washed 3 times with 5 mL ice cold 50 mM Tris buffer (pH7.4). Individual filter disks were put in scintillation vials (Biovials, Bechman). Ready Protein Plus liquid scintillant (5 mL, Beckman) was added and the vials counted by liquid scintillation spectrophotometry (Beckman LSC 6500) after equilibrating for three hours at room temperature to determine total binding (BT).
Non-Specific Binding Assay for D4
The tubes were vortexed and incubated at room temperature for 90 minutes at which time the binding reaction was stopped by filtering. The filters were washed and counted using the same procedure as in the total binding assay described above to give the non-specific binding value (NSB).
(§4) Displacement Binding Assay
(§5) The incubation was started by the addition to 12×75 mm polypropylene tubes 500 μl (50 μg protein) membrane homogenate to a solution of 400 μl incubation buffer, 100 μl (0.25 final conc.) ^3 H-spiperone (90Ci/mmol, Amersham, diluted in borosilicate glass vial to) and […] of test compound that was prepared from 1 mM stock dissolved in DMSO and stored at -20° C. in polypropylene cryogenic storage vials until dilution in incubation buffer in borosilicate glass vials. The tubes were vortexed and incubated at room temperature for 90 minutes at which time the binding reaction was stopped by filtering. The filters were washed and counted using the same procedure as in the total binding assay described above to give the displacement binding value (BD).
IC50 was determined from an inhibition response curve, logit-log plot of %B/BO vs concentration of test compound.
(§6) Ki was calculated by the Cheng and Prustoff transformation: […]
(§7) where [L] is the concentration of ^3 H-spiperone used in the assay and KD is the to dissociation constant of ^3 H-spiperone determined independently under the same binding conditions.

Structure (SMILES) | pKi
Clc1ccc2c(c1)C(N1CCN(Cc3ccc4c(c3)OCO4)CC1)=Nc1ccccc1N2 [2-Chloro-11-(4-piperonyl)-1-piperazinyl-5H-dibenzo[b,e][1,4]diazepine] | 7.12
FC(F)(F)c1ccc2c(c1)C(N1CCN(Cc3ccc4c(c3)OCO4)CC1)=Nc1ccccc1N2 [2-trifluoromethyl-11-(4-piperonyl-1-piperazinyl)-5H-dibenzo[b,e][1,4]diazepine] | 7.13
N#Cc1cccc2c1Oc1ccccc1N=C2N1CCN(Cc2ccc3c(c2)OCO3)CC1 [4-cyano-11-(4-piperonyl-1-piperazinyl)dibenz[b,f][1,4]oxazepine] | 6.92

Continued, values first:

pKi | Structure (SMILES)
7.47 | Clc1cccc2c1Nc1ccccc1N=C2N1CCN(Cc2ccc3c(c2)OCO3)CC1 [4-chloro-11-(4-piperonyl-1-piperazinyl)-5H-dibenzo[b,e][1,4]diazepine]
7.24 | Clc1cccc2c1Oc1ccccc1N=C2N1CCN(Cc2ccc3c(c2)OCO3)CC1 [4-chloro-11-(4-piperonyl-1-piperazinyl)dibenz[b,f][1,4]oxazepine]
7.61 | O=[N+]([O-])c1cccc2c1Oc1ccccc1N=C2N1CCN(Cc2ccc3c(c2)OCO3)CC1 [4-nitro-11-(4-piperonyl-1-piperazinyl)dibenz[b,f][1,4]oxazepine]
7.21 | Clc1cc2c(cc1Cl)Nc1ccccc1C(N1CCN(Cc3ccc4c(c3)OCO4)CC1)=N2 [7,8-dichloro-11-(4-piperonyl-1-piperazinyl)-5H-dibenzo[b,e][1,4]diazepine]

Biological target: T2, human D2 receptor (short isoform) (Homo sapiens, UniProt P14416)
T2 construct: membrane homogenate, 3H-spiperone displacement
T2 sequence (P14416 with tags, fused parts or gaps DEL242-270): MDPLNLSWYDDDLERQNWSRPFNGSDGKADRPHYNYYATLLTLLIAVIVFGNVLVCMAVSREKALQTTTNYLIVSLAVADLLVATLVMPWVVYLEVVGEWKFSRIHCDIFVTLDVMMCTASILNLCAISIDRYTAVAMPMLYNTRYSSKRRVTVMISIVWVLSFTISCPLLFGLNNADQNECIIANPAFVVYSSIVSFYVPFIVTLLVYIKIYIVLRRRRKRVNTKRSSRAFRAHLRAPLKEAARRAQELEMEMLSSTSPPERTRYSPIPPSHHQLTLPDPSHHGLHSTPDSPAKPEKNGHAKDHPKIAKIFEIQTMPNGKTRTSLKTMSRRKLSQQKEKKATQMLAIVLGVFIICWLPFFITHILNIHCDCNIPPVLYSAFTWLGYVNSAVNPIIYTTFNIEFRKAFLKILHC
Experiment: D2 receptor binding, displacement of 3H-spiperone (GH4C1 cells), for D2/D4 selectivity
Settings: D4 selectivity, ratio D2/D4
Experimental: as §1
GH4 C1 (rat pituitary) cells stably transfected with the human D2 receptor (short isoform) were grown in CO2 independent media in roller bottles (1500 cm^2) for 10 days. 100 μM ZnSO4 was added to the cells (the D2 promoter being zinc inducible). After 16 hours, fresh media was added to allow the cells to recover for 24 hours. The cells were harvested using versene and then centrifuged in a Sorval centrifuge for 10 minutes, at 5000 rpm (GS3 rotor). Pellets were quickly frozen in liquid nitrogen and stored at -80° C. until used in the binding assays. When used in the assay, cells were thawed on ice for 20 minutes. […] 10 mL of incubation buffer was added to the pellets which were then vortexed, resuspended and homogenized with a Kinematica CH-6010 Kriens-LU homogenizer for 15 seconds at setting 7. The receptor protein concentration was determined using the Pierce BCA assay.
as §2
as §3, with “The incubation was started by the addition of 500 μl (50 μg protein) membrane homogenate to a solution of 900 μl incubation buffer and 100 μl (0.25 nM final conc.) ^3 H-spiperone (90 Ci/mmol Amersham diluted in borosilicate glass vial) in 12×75 mm polypropylene tubes. The tubes” for “The tubes”
Non-Specific Binding Assay for D2
This assay employed the same procedures as the non-specific binding assay for D4 with the exception that 2 μM (final conc.) of (-) sulpiride (Research Chemicals Inc.) was used in place of dopamine.
as §4, §5
Specific binding in the absence of test compound (BO) was the difference of total binding (BT) minus non-specific binding (NSB) and similarly specific binding (in the presence of test compound) (B) was the difference of displacement binding (BD) minus non-specific binding (NSB). IC50 was determined from an inhibition response curve, logit-log plot of %B/BO vs concentration of test compound.
as §6, §7

Structure (SMILES) | D2/D4
Clc1ccc2c(c1)C(N1CCN(Cc3ccc4c(c3)OCO4)CC1)=Nc1ccccc1N2 [2-Chloro-11-(4-piperonyl)-1-piperazinyl-5H-dibenzo[b,e][1,4]diazepine] | 7.3
FC(F)(F)c1ccc2c(c1)C(N1CCN(Cc3ccc4c(c3)OCO4)CC1)=Nc1ccccc1N2 [2-trifluoromethyl-11-(4-piperonyl-1-piperazinyl)-5H-dibenzo[b,e][1,4]diazepine] | 1.9
N#Cc1cccc2c1Oc1ccccc1N=C2N1CCN(Cc2ccc3c(c2)OCO3)CC1 [4-cyano-11-(4-piperonyl-1-piperazinyl)dibenz[b,f][1,4]oxazepine] | 82.1

Now from value to compound:

D2/D4 | Structure (SMILES)
10.6 | Clc1cccc2c1Nc1ccccc1N=C2N1CCN(Cc2ccc3c(c2)OCO3)CC1 [4-chloro-11-(4-piperonyl-1-piperazinyl)-5H-dibenzo[b,e][1,4]diazepine]
99.2 | Clc1cccc2c1Oc1ccccc1N=C2N1CCN(Cc2ccc3c(c2)OCO3)CC1 [4-chloro-11-(4-piperonyl-1-piperazinyl)dibenz[b,f][1,4]oxazepine]
53.2 | O=[N+]([O-])c1cccc2c1Oc1ccccc1N=C2N1CCN(Cc2ccc3c(c2)OCO3)CC1 [4-nitro-11-(4-piperonyl-1-piperazinyl)dibenz[b,f][1,4]oxazepine]
27.4 | Clc1cc2c(cc1Cl)Nc1ccccc1C(N1CCN(Cc3ccc4c(c3)OCO4)CC1)=N2 [7,8-dichloro-11-(4-piperonyl-1-piperazinyl)-5H-dibenzo[b,e][1,4]diazepine]

Same assay, conditions: compared with clozapine

D4 selectivity | Structure (SMILES)
better D4 selectivity than clozapine | Clc1cccc2c1Nc1ccccc1N=C2N1CCN(Cc2ccc3c(c2)OCO3)CC1 [4-chloro-11-(4-piperonyl-1-piperazinyl)-5H-dibenzo[b,e][1,4]diazepine]
better D4 selectivity than clozapine | Clc1cccc2c1Oc1ccccc1N=C2N1CCN(Cc2ccc3c(c2)OCO3)CC1 [4-chloro-11-(4-piperonyl-1-piperazinyl)dibenz[b,f][1,4]oxazepine]
better D4 selectivity than clozapine | N#Cc1cccc2c1Oc1ccccc1N=C2N1CCN(Cc2ccc3c(c2)OCO3)CC1 [4-cyano-11-(4-piperonyl-1-piperazinyl)dibenz[b,f][1,4]oxazepine]
better D4 selectivity than clozapine | O=[N+]([O-])c1cccc2c1Oc1ccccc1N=C2N1CCN(Cc2ccc3c(c2)OCO3)CC1 [4-nitro-11-(4-piperonyl-1-piperazinyl)dibenz[b,f][1,4]oxazepine]
better D4 selectivity than clozapine | Clc1cc2c(cc1Cl)Nc1ccccc1C(N1CCN(Cc3ccc4c(c3)OCO4)CC1)=N2 [7,8-dichloro-11-(4-piperonyl-1-piperazinyl)-5H-dibenzo[b,e][1,4]diazepine]

Same assay, conditions: compared with corresponding 4-methyl piperazine compound

Structure (SMILES) | D4 selectivity
FC(F)(F)c1ccc2c(c1)C(N1CCN(Cc3ccc4c(c3)OCO4)CC1)=Nc1ccccc1N2 [2-trifluoromethyl-11-(4-piperonyl-1-piperazinyl)-5H-dibenzo[b,e][1,4]diazepine] | better D4selectivity than the corresponding 4-methyl piperazine compound
Clc1cc2c(cc1Cl)Nc1ccccc1C(N1CCN(Cc3ccc4c(c3)OCO4)CC1)=N2 [7,8-dichloro-11-(4-piperonyl-1-piperazinyl)-5H-dibenzo[b,e][1,4]diazepine] | better D4selectivity than the corresponding 4-methyl piperazine compound

Tested on: D4 receptor
Experiment: not given
Settings: background; cited from earlier work

Structure (SMILES) | preference for binding the D4 receptor relative to the D2 receptor
CN1CCN(C2=Nc3cc(Cl)ccc3Oc3ccccc32)CC1 [isoloxapine] | about 10 fold

Same assay, conditions: background; read-out: Ki value (D4 affinity); cited from earlier work

Structure (SMILES) | pKi
CN1CCN(C2=Nc3cc(Cl)ccc3Oc3ccccc32)CC1 [isoloxapine] | ~7.70
